# Reference: article PMC5760531, “Action Potential Recording and Pro-arrhythmia Risk Analysis in Human Ventricular Trabeculae” (Frontiers in Physiology, 2018)
# Tested on: human ventricular trabeculae
# Test: Action potential recording and pro-arrhythmic score analysis in human ventricular trabeculae (hVT);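 note: sharp microelectrode action potential recordings at 37°C in Tyrode-perfused trabeculae, 4 cumulative concentrations each applied 31 min, values averaged over last 30 APs, vehicle 0.1% DMSO as control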
# [1] = 1Hz, 1-FOLD free ETPC (0.009µM)
# [2] = 1Hz, 11-FOLD free ETPC (0.009µM)
# [3] = 1Hz, 111-FOLD free ETPC (0.009µM)
# [4] = 1Hz, 1111-FOLD free ETPC (0.009µM)
# [5] = 2Hz, 1-FOLD free ETPC (0.009µM)
# [6] = 2Hz, 11-FOLD free ETPC (0.009µM)
# [7] = 2Hz, 111-FOLD free ETPC (0.009µM)
# [8] = 2Hz, 1111-FOLD free ETPC (0.009µM)
smiles,measurement,setting,value
"CC(C)(C)c1ccc(C(O)CCCN2CCC(C(O)(c3ccccc3)c3ccccc3)CC2)cc1 (stereo not drawn) [TERFENADINE, Terfenadine]",AMAX,[1],113
same,AMAX percentage change compared to vehicle control,[1],1%
same,APD30,[1],148
same,APD30 percentage change compared to vehicle control,[1],4%
same,APD50,[1],199
same,APD50 percentage change compared to vehicle control,[1],3%
same,APD90,[1],278
same,APD90 percentage change compared to vehicle control,[1],1%
same,Alternans,[1],0.70
same,Alternans percentage change compared to vehicle control,[1],53%
same,Beat Escape,[1],0
same,Beat Escape percentage change compared to vehicle control,[1],0%
same,EADs,[1],0
same,EADs percentage change compared to vehicle control,[1],0%
same,ERP,[1],0.45
same,ERP percentage change compared to vehicle control,[1],-2%
same,Max Dispersion,[1],4.48
same,Max Dispersion percentage change compared to vehicle control,[1],60%
same,RMP,[1],-89
same,RMP percentage change compared to vehicle control,[1],1%
same,Refractoriness Escape,[1],0
same,Refractoriness Escape percentage change compared to vehicle control,[1],0%
same,STV,[1],0.50
same,STV percentage change compared to vehicle control,[1],72%
same,Triangulation,[1],130
same,Triangulation percentage change compared to vehicle control,[1],-2%
same,AMAX,[2],109
same,AMAX percentage change compared to vehicle control,[2],-1%
same,APD30,[2],152
same,APD30 percentage change compared to vehicle control,[2],6%
same,APD50,[2],203
same,APD50 percentage change compared to vehicle control,[2],4%
same,APD90,[2],286
same,APD90 percentage change compared to vehicle control,[2],3%
same,Alternans,[2],0.62
same,Alternans percentage change compared to vehicle control,[2],35%
same,Beat Escape,[2],0
same,Beat Escape percentage change compared to vehicle control,[2],0%
same,EADs,[2],0
same,EADs percentage change compared to vehicle control,[2],0%
same,ERP,[2],0.44
same,ERP percentage change compared to vehicle control,[2],-3%
same,Max Dispersion,[2],2.80
same,Max Dispersion percentage change compared to vehicle control,[2],0%
same,RMP,[2],-86
same,RMP percentage change compared to vehicle control,[2],-2%
same,Refractoriness Escape,[2],0
same,Refractoriness Escape percentage change compared to vehicle control,[2],0%
same,STV,[2],0.45
same,STV percentage change compared to vehicle control,[2],40%
same,Triangulation,[2],134
same,Triangulation percentage change compared to vehicle control,[2],0%
same,AMAX,[3],109
same,AMAX percentage change compared to vehicle control,[3],-2%
same,APD30,[3],148
same,APD30 percentage change compared to vehicle control,[3],4%
same,APD50,[3],200
same,APD50 percentage change compared to vehicle control,[3],3%
same,APD90,[3],284
same,APD90 percentage change compared to vehicle control,[3],2%
same,Alternans,[3],0.52
same,Alternans percentage change compared to vehicle control,[3],12%
same,Beat Escape,[3],0
same,Beat Escape percentage change compared to vehicle control,[3],0%
same,EADs,[3],0
same,EADs percentage change compared to vehicle control,[3],0%
same,ERP,[3],0.45
same,ERP percentage change compared to vehicle control,[3],0%
same,Max Dispersion,[3],2.43
same,Max Dispersion percentage change compared to vehicle control,[3],-13%
same,RMP,[3],-85
same,RMP percentage change compared to vehicle control,[3],-3%
same,Refractoriness Escape,[3],0
same,Refractoriness Escape percentage change compared to vehicle control,[3],0%
same,STV,[3],0.39
same,STV percentage change compared to vehicle control,[3],30%
same,Triangulation,[3],135
same,Triangulation percentage change compared to vehicle control,[3],0%
same,AMAX,[4],110
same,AMAX percentage change compared to vehicle control,[4],0%
same,APD30,[4],140
same,APD30 percentage change compared to vehicle control,[4],-2%
same,APD50,[4],192
same,APD50 percentage change compared to vehicle control,[4],-2%
same,APD90,[4],277
same,APD90 percentage change compared to vehicle control,[4],0%
same,Alternans,[4],0.60
same,Alternans percentage change compared to vehicle control,[4],31%
same,Beat Escape,[4],0
same,Beat Escape percentage change compared to vehicle control,[4],0%
same,EADs,[4],0
same,EADs percentage change compared to vehicle control,[4],0%
same,ERP,[4],0.46
same,ERP percentage change compared to vehicle control,[4],2%
same,Max Dispersion,[4],3.70
same,Max Dispersion percentage change compared to vehicle control,[4],32%
same,RMP,[4],-87
same,RMP percentage change compared to vehicle control,[4],-1%
same,Refractoriness Escape,[4],0
same,Refractoriness Escape percentage change compared to vehicle control,[4],0%
same,STV,[4],0.44
same,STV percentage change compared to vehicle control,[4],56%
same,Triangulation,[4],137
same,Triangulation percentage change compared to vehicle control,[4],2%
same,AMAX,[5],109
same,AMAX percentage change compared to vehicle control,[5],2%
same,APD30,[5],107
same,APD30 percentage change compared to vehicle control,[5],8%
same,APD50,[5],151
same,APD50 percentage change compared to vehicle control,[5],6%
same,APD90,[5],228
same,APD90 percentage change compared to vehicle control,[5],2%
same,Alternans,[5],1.31
same,Alternans percentage change compared to vehicle control,[5],24%
same,Beat Escape,[5],0
same,Beat Escape percentage change compared to vehicle control,[5],0%
same,EADs,[5],0
same,EADs percentage change compared to vehicle control,[5],0%
same,ERP,[5],0.48
same,ERP percentage change compared to vehicle control,[5],-3%
same,Max Dispersion,[5],5.60
same,Max Dispersion percentage change compared to vehicle control,[5],14%
same,RMP,[5],-87
same,RMP percentage change compared to vehicle control,[5],1%
same,Refractoriness Escape,[5],0
same,Refractoriness Escape percentage change compared to vehicle control,[5],0%
same,STV,[5],0.91
same,Triangulation,[5],120
same,Triangulation percentage change compared to vehicle control,[5],-2%
same,AMAX,[6],108
same,AMAX percentage change compared to vehicle control,[6],2%
same,APD30,[6],110
same,APD30 percentage change compared to vehicle control,[6],11%
same,APD50,[6],153
same,APD50 percentage change compared to vehicle control,[6],7%
same,APD90,[6],231
same,APD90 percentage change compared to vehicle control,[6],4%
same,Alternans,[6],0.97
same,Alternans percentage change compared to vehicle control,[6],-8%
same,Beat Escape,[6],0
same,Beat Escape percentage change compared to vehicle control,[6],0%
same,EADs,[6],0
same,EADs percentage change compared to vehicle control,[6],0%
same,ERP,[6],0.47
same,ERP percentage change compared to vehicle control,[6],-6%
same,Max Dispersion,[6],4.40
same,Max Dispersion percentage change compared to vehicle control,[6],-11%
same,RMP,[6],-86
same,RMP percentage change compared to vehicle control,[6],-1%
same,Refractoriness Escape,[6],0
same,Refractoriness Escape percentage change compared to vehicle control,[6],0%
same,STV,[6],0.66
same,Triangulation,[6],121
same,Triangulation percentage change compared to vehicle control,[6],-2%
same,AMAX,[7],109
same,AMAX percentage change compared to vehicle control,[7],2%
same,APD30,[7],108
same,APD30 percentage change compared to vehicle control,[7],10%
same,APD50,[7],154
same,APD50 percentage change compared to vehicle control,[7],7%
same,APD90,[7],234
same,APD90 percentage change compared to vehicle control,[7],4%
same,Alternans,[7],1.28
same,Alternans percentage change compared to vehicle control,[7],21%
same,Beat Escape,[7],0
same,Beat Escape percentage change compared to vehicle control,[7],0%
same,EADs,[7],0
same,EADs percentage change compared to vehicle control,[7],0%
same,ERP,[7],0.48
same,ERP percentage change compared to vehicle control,[7],-2%
same,Max Dispersion,[7],5.53
same,Max Dispersion percentage change compared to vehicle control,[7],12%
same,RMP,[7],-85
same,RMP percentage change compared to vehicle control,[7],-2%
same,Refractoriness Escape,[7],0
same,Refractoriness Escape percentage change compared to vehicle control,[7],0%
same,STV,[7],0.89
same,Triangulation,[7],126
same,Triangulation percentage change compared to vehicle control,[7],0%
same,AMAX,[8],108
same,AMAX percentage change compared to vehicle control,[8],2%
same,APD30,[8],105
same,APD30 percentage change compared to vehicle control,[8],5%
same,APD50,[8],150
same,APD50 percentage change compared to vehicle control,[8],4%
same,APD90,[8],233
same,APD90 percentage change compared to vehicle control,[8],3%
same,Alternans,[8],0.96
same,Alternans percentage change compared to vehicle control,[8],-10%
same,Beat Escape,[8],0
same,Beat Escape percentage change compared to vehicle control,[8],0%
same,EADs,[8],0
same,EADs percentage change compared to vehicle control,[8],0%
same,ERP,[8],0.48
same,ERP percentage change compared to vehicle control,[8],-3%
same,Max Dispersion,[8],3.10
same,Max Dispersion percentage change compared to vehicle control,[8],-37%
same,RMP,[8],-85
same,RMP percentage change compared to vehicle control,[8],-2%
same,Refractoriness Escape,[8],0
same,Refractoriness Escape percentage change compared to vehicle control,[8],0%
same,STV,[8],0.71
same,Triangulation,[8],128
same,Triangulation percentage change compared to vehicle control,[8],3%
